Results as given in patent US20170007700A1, “COMPOSITIONS AND METHODS FOR BORON NEUTRON CAPTURE THERAPY” (THE CURATORS OF THE UNIVERSITY OF MISSOURI, priority 2014, published 2017).

Assay: Metabolic transformation of TAC and MAC in vivo (MALDI-MS of mouse urine)
Design: species or system mice
Conditions: for metabolic degradation in vivo: mice given TAC/MAC liposomes
From the text: One of the components of in vivo biodistribution study of TAC/MAC liposomes in mice was identification of any metabolic transformation of either TAC or MAC in the body. Metabolic degradation of TAC was not observed in vivo. […] Three main metabolites of MAC were identified in mouse urine by matrix-assisted laser desorption […] mass spectrometry (MALDI-MS) analysis and are illustrated in FIG. 4.

**Q.** What does the source list for K[nido-7-CH3(CH2)15-7,8-C2B9H11] [MAC]?
**A.** main metabolites identified in mouse urine (MALDI-MS): Three; metabolic degradation in vivo: expelled without change

**Q.** For Na3[1-(2′-B10H9)-2-NH3B10H8] [TAC], which “metabolic degradation in vivo” value is on record?
**A.** not observed
